The values that follow come from patent publication US12492169B2, “Aminopyridine compound and application thereof” (priority 2020, dated 2025).

Values after ≈ are worked out from the molar mass of the structure shown. Values joined by “and” are separate entries in the source; they are usually repeats but may differ in a detail not shown here. Equal values may be shown once. Read-outs that look alike come from different tables or passages of the source.

Series [1] can be described thus: Pharmacokinetic evaluation in mice (IV). It counts as in vivo, CD-1 mice. To be noted: CD-1, plasma, 1 mg/kg, Mouse, 1 mpk. From the text: (§1) Experimental Purpose: To evaluate the druggability of the compounds by measuring its pharmacokinetic properties in different animal species.
(§2) Experimental materials: CD-1 mice, Sprague-Dawley strain rats, beagle dogs, and crab-eating macaques.
(§3) Drug preparation: An appropriate amount of sample was weighed and then prepared into a clear or suspended solution.
(§4) Experimental procedure: The animal pharmacokinetic characteristics after intravenous injection and oral administration of the compound were tested using a standard protocol. The candidate compound was prepared as a clear solution (for intravenous injection) or a homogeneous suspension (for oral administration) during the experiment and administered to the animals as a single dose. Whole blood samples were collected at 0.083, 0.25, 0.5, 1, 2, 4, 8, and 24 hours, centrifuged at 3200 g for 10 minutes to separate the supernatant to obtain plasma samples. The plasma concentration was quantitatively analyzed by LC-MS/MS analysis method and pharmacokinetic parameters were calculated, such as peak concentration, peak time, clearance rate, half-life, area under the drug-time curve, etc.

Series [2] concerns Aspergillus flavus ATCC MYA-1004. Briefly: Minimum effective concentration (MEC) test against fungi. The settings on record: change of hyphae morphology by microscope, 48 hours, three independent experiments. In kind it is cell-based. The procedure:
(§5) To test the minimum inhibitory concentration (MIC) and minimum effective concentration (MEC) of the drug against fungi.
(§6) Aspergillus fumigatus ATCC-MYA-4609; Aspergillus flavus ATCC MYA-1004
(§7) Test medium: RPMI1640 (containing 0.165 M MOPS, pH7.0)
(§8) On the day of the experiment, the compound in the bottle was dissolved in 100% DMSO to a stock solution concentration of 6.24 mg/mL. Then, the mixture was 10-fold diluted with DMSO to 0.624 mg/mL for use.
(§9) A 2-fold gradient dilution of the compound solution (0.624 mg/mL) was performed using DMSO on a 96-microwell plate (V-bottom) to obtain 100× working solutions (wells 1 to 11). 624, 312, 156, 78, 39, 20, 10, 5, 2.5, 1.25, 0.625 μg/mL. 100% DMSO was used as a positive control (well 12). This was the compound stock plate.
(§10) Aspergillus fumigatus ATCC-MYA-4609; Aspergillus flavus ATCC MYA-1004 frozen at −80° C. were streaked on SDA plates and incubated aerobically in a 30±2° C. incubator for 6 days.
(§11) For strains Aspergillus fumigatus ATCC MYA-4609; Aspergillus flavus ATCC MYA-1004, after taking out the plate, 3 mL of 0.9% normal saline containing 0.1% Tween20 was added to the plate and the spores were gently collected. The spores were counted with a hemocytometer and the spore suspension was adjusted to about 5×10^6 spores/mL. Then the spore suspension was diluted to 0.8 to 1×10^5 spores/mL with a test medium.
(§12) 2 μL of 100× working solution from the compound stock plate (prepared in 3.1) was transferred to a round-bottomed 96-well plate (containing 98 μL of test medium), and then 100 μL of fungus inoculum (prepared in 3.2) was added to each well to obtain a MIC test plate. Therefore, the final test concentrations of the compounds were 6.24, 3.12, 1.56, 0.78, 0.39, 0.20, 0.10, 0.05, 0.025, 0.0125, 0.006 μg/mL. 1% DMSO was used as a growth control.
(§13) For mold strains Aspergillus fumigatus ATCC-MYA-4609 and Aspergillus flavus ATCC MYA-1004, all test plates were incubated aerobically in a 35±° C. incubator for 48 hours.
(§14) After incubation, according to the criteria in Table 1 below, the test plate was observed by eye or microscope to determine the MIC (g/mL) and MEC (g/mL) of the test compound against yeast and mold.

For series [3], the system named is Aspergillus fumigatus ATCC-MYA-4609. The description is as above. It counts as cell-based. The settings on record: change of hyphae morphology by microscope, 48 hours, three independent experiments. How it is done: as §5, §6, §7, §8, §9, §10, §11, §12, §13, §14
For series [4], the system named is Cryptococcus neoformans H99 ATCC 208821. Briefly: Minimum inhibitory concentration (MIC) test against fungi. The settings on record: Cryptococcus neoformans, ATCC208821, 72 h, ≥50% growth inhibition by eye, three independent experiments, read-out: MIC. It counts as cell-based. The procedure:
as §5
Cryptococcus neoformans H99 ATCC 208821;
as §7, §8, §9
Cryptococcus neoformans H99 ATCC 208821 frozen at −80° C. was streaked on SDA plates and incubated aerobically in a 35±2° C. incubator for 48 hours.
(§15) On the day of the experiment, for strains Candida parapsilosis ATCC 22019, Candida albicans ATCC MYA-2876; Candida albicans WX-CA009; Candida glabrata ATCC15126; Candida tropicalis ATCC 750 and Cryptococcus neoformans H99 ATCC 208821, the plates were taken out and the clones on the plates were picked, suspended in normal saline, and then the turbidity of the fungal suspension was adjusted to OD600=0.2 using a turbidimeter. The fungal suspension contained about 3.0×10^6 CFU/mL. Then the turbidity-adjusted fungal suspension was diluted with a test medium to a concentration of about 3.0×10^3 CFU/mL. This was the inoculum.
as §12
For Cryptococcus neoformans H99 ATCC 208821, all test plates were incubated aerobically in a 35±2° C. incubator for 72 hours.
as §14

The subject of series [5] is Candida glabrata ATCC15126. The description is as above. The settings on record: ≥50% growth inhibition by eye, three independent experiments. In kind it is cell-based. The procedure: as §5
(§16) Experimental strains: Candida parapsilosis ATCC 22019; Candida albicans ATCC MYA-2876; Candida albicans WX-CA009; Candida glabrata ATCC15126; Candida tropicalis ATCC 750;
as §7, §8, §9
(§17) Candida parapsilosis ATCC 22019 and Candida albicans ATCC MYA-2876; Candida albicans WX-CA009; Candida glabrata ATCC15126; Candida tropicalis ATCC 750 frozen at −80° C. were streaked on SDA plates and incubated aerobically in a 35±2° C. incubator for 24 hours.
as §15, §12
(§18) For strains Candida parapsilosis ATCC 22019; Candida albicans ATCC MYA-2876; Candida albicans WX-CA009; Candida glabrata ATCC15126; Candida tropicalis ATCC 750, all test plates were incubated aerobically in a 35±2° C. incubator for 24 hours.
as §14

Series [6] deals with Candida parapsilosis ATCC 22019. Described as above. It counts as cell-based. The settings on record: Lodderomyces parapsilosis, ATCC22019, 24 h, ≥50% growth inhibition by eye, three independent experiments (1st, 2nd, 3rd time), read-out: MIC. How it is done:
as §5, §16, §7, §8, §9, §17, §15, §12, §18, §14

The subject of series [7] is Candida albicans WX-CA009. Described as above. In kind it is cell-based. The settings on record: Candida albicans, WXCA009, 24 h, ≥50% growth inhibition by eye, three independent experiments, read-out: MIC. The procedure:
as §5, §16, §7, §8, §9, §17, §15, §12, §18, §14

The next series can be described thus: in vivo. Details: species or system crab-eating macaques. To be noted: monkey.
Text: as §1, §2, §3, §4

Where [8] appears, read: crab-eating macaque (cynomolgus), iv, 0.4 mg/kg.
Where [9] appears, read: crab-eating macaque (cynomolgus), po, 10 mg/kg.

As to `Nc1ccc(C#CCc2ccc(COc3ccccn3)cc2)cn1` [WX004], the AUC amounted to 2 µM·h in series [1]; 5 µM·h in the series “in vivo” (setting [8]); 72 µM·h in “in vivo” (crab-eating macaque, po, 10 mg/kg). Besides, the values for the Vd (in series [1]; in the series “in vivo” (setting [8])) were 5.2 L/kg and 4.4 L/kg, respectively. The clearance is 28 mL/min/kg in series [1] and 4.3 mL/min/kg in the series “in vivo” (setting [8]). The half-life in series [1] is 2.1 h; in “in vivo” (iv, 0.4 mg/kg), 3.5 h. Moreover, the MEC was 0.39 µg/mL and 0.78 µg/mL in series [2]; 0.1 µg/mL in series [3]. Also, the MIC in series [4] was 1.56 µg/mL (≈ 4.95 µM); in series [5] (Nakaseomyces glabratus, ATCC15126, 24 h, read-out: MIC), 0.39 µg/mL (≈ 1.24 µM); in series [5] (24 hours) it was 0.78 µg/mL (≈ 2.47 µM); in series [6], 0.05 µg/mL (≈ 0.159 µM); in series [7] it was 0.025 µg/mL (≈ 0.0793 µM). This molecule had a Cmax in the series “in vivo” (setting [9]) of 9 µM. Further, the Tmax in the series “in vivo” (setting [9]) is 4 h. Further, in the series “in vivo” (po, 10 mg/kg), the bioavailability stood at 60%.

A word on the AUC: it is concentration integrated over time. Low readings indicate low exposure, high ones high exposure. As usually defined, the Vd is a proportionality between amount in the body and measured concentration, not a real space. Lower therefore signals little distribution into tissue. By clearance is commonly meant the rate of elimination divided by the concentration. A word on the half-life: it is how long it takes for the measured level to halve. A high value points to slow loss. What is called MIC is the lowest concentration found to suppress growth. The term Cmax denotes the maximum level reached in the sampled fluid or tissue. One may read the Tmax as the time at which the peak concentration occurs. What is called bioavailability is dose-corrected exposure relative to a reference, in per cent. Low readings indicate little systemic uptake, high ones much systemic uptake.
